The results in this text go back to PMC6151589, “Identification of Optically Active Pyrimidine Derivatives as Selective 5-HT2C Modulators” (Molecules : A Journal of Synthetic Chemistry and Natural …, 2017).

Molecules are shown by their SMILES.

Holding throughout (assay): biochemical
Holding throughout (set-up): species or system HEK293 or CHO; competitive radioligand binding on crude membranes, filtration and scintillation counting

The target in one assay is T1, 5-HT7 (Homo sapiens, UniProt P34969).
T1 construct: gene HTR7; human recombinant receptor, crude membranes of HEK293 or CHO cells
The conditions noted are these: for Ki: read-out: Ki (nM), 7. Here is the method:
(§1) Eleven dilutions (5 × assay concentration) of the test and reference compounds (Table S1) were prepared in standard binding buffer (50 mM tris(hydroxymethyl)-aminomethane-HCl (Tris-HCl), 10 mM MgCl2, 1 mM ethylenediaminetetraacetate (EDTA), pH 7.4) by serial dilution: 0.05 nM, 0.5 nM, 1.5 nM, 5 nM, 15 nM, 50 nM, 150 nM, 500 nM, 1.5 μM, 5 μM, and 50 μM. The radioligand (Table S3) was diluted to five times the assay concentration in standard binding buffer. Aliquots ([…]) of the radioligand were dispensed into the wells of a 96-well plate containing […] of standard binding buffer. Triplicate aliquots ([…]) of the test and reference compound dilutions were then added. Finally, crude membrane fractions ([…]) of cells (HEK293 or CHO) expressing human recombinant receptors were dispensed into each well. A total of […] of the reaction mixtures was incubated at room temperature and shielded from light for 1.5 h, and was then harvested by rapid filtration onto Whatman GF/B glass fiber filters presoaked with 0.3% polyethyleneimine, by using a 96-well Brandel harvester (Gaithersburg, MD, USA). Four rapid washes were performed with chilled standard binding buffer (500 mL) to decrease nonspecific binding. Filters were placed in 6 mL scintillation tubes and allowed to dry overnight. The next day, 4-mL of EcoScint scintillation cocktail (National Diagnostics) was added to each tube. The tubes were capped, labeled, and counted by […] scintillation counting. The filter mats were dried, and the scintillant was melted onto the filters, then the radioactivity retained on the filters was counted in a Microbeta scintillation counter. The IC50 values were obtained by using the Prism 4.0 program (GraphPad Software, La Jolla, CA, USA) and were converted into Ki values. Each compound was tested at least in triplicate. With each enantiomer (R)- or (S)-5d and 5e in hand, the optically active pyrimidine derivatives 4d–4e were synthesized following the same reaction sequences (Scheme 3). Finally, compounds 4d and 4e were assessed for their binding affinity to 5-HT2 receptor subtypes by radioligand binding assays. […] A further evaluation of these compounds for other 5-HT receptor subtypes was also performed and is provided in the supplementary data (Table S2). […] Considering the potencies and selectivities of 4, we can conclude that (R,R)-4e would be a viable candidate for a selective 5-HT2C modulator.

In the next assay the target is T2, 5-HT1A (Homo sapiens, UniProt P08908).
T2 construct: gene HTR1A; human recombinant receptor, crude membranes of HEK293 or CHO cells
T2 sequence (P08908 1-422): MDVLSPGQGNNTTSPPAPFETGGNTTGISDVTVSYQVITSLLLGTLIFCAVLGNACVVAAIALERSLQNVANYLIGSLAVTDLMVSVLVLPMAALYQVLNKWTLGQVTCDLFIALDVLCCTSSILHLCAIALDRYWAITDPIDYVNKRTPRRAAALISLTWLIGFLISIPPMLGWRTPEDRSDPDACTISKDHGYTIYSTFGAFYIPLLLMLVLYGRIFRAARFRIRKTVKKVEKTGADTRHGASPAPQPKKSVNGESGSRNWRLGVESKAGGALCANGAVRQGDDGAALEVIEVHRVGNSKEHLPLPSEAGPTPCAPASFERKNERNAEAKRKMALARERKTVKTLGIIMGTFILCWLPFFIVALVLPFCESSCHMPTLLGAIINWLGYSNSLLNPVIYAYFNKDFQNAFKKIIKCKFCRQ
The conditions noted are these: for Ki: read-out: Ki (nM), 1A. Here is the method:
as §1

The next assay has as its target T3, 5-HT5A (Homo sapiens, UniProt P47898).
T3 construct: gene HTR5A; human recombinant receptor, crude membranes of HEK293 or CHO cells
Here is the method: as §1

Another assay concerns the target T4, 5-HT3 (Homo sapiens, UniProt P46098).
T4 construct: gene HTR3A; human recombinant receptor, crude membranes of HEK293 or CHO cells
T4 sequence (P46098 1-478): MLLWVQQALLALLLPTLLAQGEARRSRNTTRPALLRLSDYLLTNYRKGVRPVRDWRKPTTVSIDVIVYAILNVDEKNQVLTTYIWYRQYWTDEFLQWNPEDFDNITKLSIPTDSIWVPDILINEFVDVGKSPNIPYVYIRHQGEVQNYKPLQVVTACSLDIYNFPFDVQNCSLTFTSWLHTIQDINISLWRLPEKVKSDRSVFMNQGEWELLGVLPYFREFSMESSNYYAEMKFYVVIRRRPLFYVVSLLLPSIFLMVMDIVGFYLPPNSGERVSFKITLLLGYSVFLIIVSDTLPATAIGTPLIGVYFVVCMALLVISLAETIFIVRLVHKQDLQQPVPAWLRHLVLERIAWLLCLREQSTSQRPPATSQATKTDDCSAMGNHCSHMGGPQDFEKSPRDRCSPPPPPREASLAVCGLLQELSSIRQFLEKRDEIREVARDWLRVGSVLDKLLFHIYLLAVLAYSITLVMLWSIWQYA
As to conditions: for Ki: read-out: Ki (nM), 3. Here is the method:
as §1

Another assay concerns the target T5, 5-HT1D (Homo sapiens, UniProt P28221).
T5 construct: gene HTR1D; human recombinant receptor, crude membranes of HEK293 or CHO cells
Here is the method: as §1

In the next assay the target is T6, 5-HT1B (Homo sapiens, UniProt P28222).
T6 construct: gene HTR1B; human recombinant receptor, crude membranes of HEK293 or CHO cells
Here is the method: as §1

Another assay addresses T7, 5-HT2B (Homo sapiens, UniProt P41595).
T7 construct: gene HTR2B; human recombinant receptor; crude membrane fractions of transfected HEK293 or CHO cells
Here is the method: as §1

T1 sequence (P34969 whole entry): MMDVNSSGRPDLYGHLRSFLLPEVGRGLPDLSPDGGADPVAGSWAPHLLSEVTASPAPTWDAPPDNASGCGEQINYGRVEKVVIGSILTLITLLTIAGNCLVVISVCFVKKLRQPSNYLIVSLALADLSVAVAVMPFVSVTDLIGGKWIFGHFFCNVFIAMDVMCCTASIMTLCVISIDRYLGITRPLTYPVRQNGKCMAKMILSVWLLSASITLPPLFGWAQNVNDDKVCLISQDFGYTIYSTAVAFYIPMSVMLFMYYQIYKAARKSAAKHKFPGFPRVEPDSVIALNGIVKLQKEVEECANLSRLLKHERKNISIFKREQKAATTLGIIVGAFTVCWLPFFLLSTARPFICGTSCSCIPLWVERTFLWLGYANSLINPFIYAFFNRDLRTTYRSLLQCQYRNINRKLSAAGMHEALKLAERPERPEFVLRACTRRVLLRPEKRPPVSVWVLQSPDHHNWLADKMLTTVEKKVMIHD
T7 sequence (P41595 whole entry): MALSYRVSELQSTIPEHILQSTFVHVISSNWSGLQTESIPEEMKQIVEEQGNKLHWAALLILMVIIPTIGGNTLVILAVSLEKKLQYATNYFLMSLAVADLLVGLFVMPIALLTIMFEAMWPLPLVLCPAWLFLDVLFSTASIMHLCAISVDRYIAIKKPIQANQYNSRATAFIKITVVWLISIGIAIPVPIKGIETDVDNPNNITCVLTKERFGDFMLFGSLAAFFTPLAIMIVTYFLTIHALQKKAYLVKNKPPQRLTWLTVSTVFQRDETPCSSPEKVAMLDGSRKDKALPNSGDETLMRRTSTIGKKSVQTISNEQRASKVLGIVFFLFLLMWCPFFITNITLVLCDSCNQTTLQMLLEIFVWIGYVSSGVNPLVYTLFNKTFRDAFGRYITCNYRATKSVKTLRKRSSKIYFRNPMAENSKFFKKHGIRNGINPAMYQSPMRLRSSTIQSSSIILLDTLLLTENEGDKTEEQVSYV
T6 sequence (P28222 whole entry): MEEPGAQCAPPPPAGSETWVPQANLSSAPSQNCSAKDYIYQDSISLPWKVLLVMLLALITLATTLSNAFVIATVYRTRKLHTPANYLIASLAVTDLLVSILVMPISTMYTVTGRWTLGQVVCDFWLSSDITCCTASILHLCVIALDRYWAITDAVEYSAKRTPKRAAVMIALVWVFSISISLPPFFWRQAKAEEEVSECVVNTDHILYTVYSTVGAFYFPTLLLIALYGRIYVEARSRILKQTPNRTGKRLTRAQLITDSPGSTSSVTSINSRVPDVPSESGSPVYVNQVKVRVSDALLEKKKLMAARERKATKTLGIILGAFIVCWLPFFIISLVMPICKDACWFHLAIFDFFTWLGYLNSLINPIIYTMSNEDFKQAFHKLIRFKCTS
T3 sequence (P47898 whole entry): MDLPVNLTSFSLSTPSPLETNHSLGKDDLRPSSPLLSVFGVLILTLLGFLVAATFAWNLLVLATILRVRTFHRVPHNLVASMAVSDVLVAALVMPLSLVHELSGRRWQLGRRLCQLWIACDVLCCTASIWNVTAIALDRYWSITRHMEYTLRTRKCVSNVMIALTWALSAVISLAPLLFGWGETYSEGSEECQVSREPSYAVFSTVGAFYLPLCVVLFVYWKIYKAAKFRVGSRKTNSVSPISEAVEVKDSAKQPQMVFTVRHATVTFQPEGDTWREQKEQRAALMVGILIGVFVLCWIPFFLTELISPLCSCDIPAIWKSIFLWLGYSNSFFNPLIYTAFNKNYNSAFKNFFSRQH
T5 sequence (P28221 whole entry): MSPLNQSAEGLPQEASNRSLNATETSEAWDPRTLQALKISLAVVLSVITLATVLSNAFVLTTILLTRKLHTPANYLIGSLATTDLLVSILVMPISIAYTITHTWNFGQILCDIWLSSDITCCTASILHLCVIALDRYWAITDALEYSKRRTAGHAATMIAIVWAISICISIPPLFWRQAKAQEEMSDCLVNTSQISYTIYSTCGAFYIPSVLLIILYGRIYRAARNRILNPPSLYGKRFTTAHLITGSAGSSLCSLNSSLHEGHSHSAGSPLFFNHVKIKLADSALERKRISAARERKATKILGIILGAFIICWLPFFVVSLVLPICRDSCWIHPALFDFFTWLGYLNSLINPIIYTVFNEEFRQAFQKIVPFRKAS

As for `C[C@H](Oc1nc(N2CCNC[C@H]2C)ncc1F)c1cccc(F)c1` [(S,R)-4d, 5-Fluoro-4-((S)-1-(3-fluorophenyl)ethoxy)-2-((R)-2-methylpiperazin-1-yl)pyrimidine], the inhibition at 10 µM at 5-HT7 came to 56.9%; on 5-HT1A it was 67.7%; at 5-HT5A, 22.8%; at 5-HT3, 78.6%; on 5-HT1D, 10.3%; on 5-HT1B, 3%. Moreover, the Ki at 5-HT7 was found to be 766 nM; on 5-HT1A, 806 nM; at 5-HT3 it was 501 nM.
Take `C[C@@H]1CNCCN1c1ncc(F)c(O[C@H](C)c2ccc(F)cc2)n1` [(R,R)-4e, 5-Fluoro-4-((R)-1-(4-fluorophenyl)ethoxy)-2-((R)-2-methylpiperazin-1-yl)pyrimidine]: the inhibition at 10 µM was 87.6% at 5-HT7; 10% on 5-HT1A; 26.7% at 5-HT5A; 87.8% on 5-HT3; -7.7% at 5-HT1D; 6.4% at 5-HT1B. Besides, the inhibition at 10 µM at 5-HT2B was 99.6%. The Ki worked out at 236 nM on 5-HT7 and 242 nM at 5-HT3.
For `C[C@H](Cc1cccc(F)c1)Oc1nc(N2CCNC[C@H]2C)ncc1F` [compound 3, pyrimidine analogue 3], the inhibition at 10 µM came out at 94.7% at 5-HT7; 89% on 5-HT1A; 37.4% on 5-HT5A; 75% at 5-HT3; 78.3% at 5-HT1D; 55.1% at 5-HT1B. In addition, the inhibition at 10 µM at 5-HT2B stood at 97.4%. Also, the Ki on 5-HT7 came to 84 nM; at 5-HT1A, 353 nM; on 5-HT3, 241 nM; on 5-HT1D (read-out: Ki (nM), 1D), 542 nM; on 5-HT1B (read-out: Ki (nM), 1B), 1780 nM.
Regarding `C[C@H](Oc1nc(N2CCNC[C@H]2C)ncc1F)c1ccc(F)cc1` [(S,R)-4e, 5-Fluoro-4-((S)-1-(4-fluorophenyl)ethoxy)-2-((R)-2-methylpiperazin-1-yl)pyrimidine], the inhibition at 10 µM came to 64.8% on 5-HT7; 67.3% at 5-HT1A; 5.2% at 5-HT5A; 70.1% at 5-HT3; 40.4% on 5-HT1D; 17.9% on 5-HT1B. The inhibition at 10 µM at 5-HT2B was determined as 95.3%. Further, the Ki at 5-HT7 turned out to be 946 nM; on 5-HT1A, 1120 nM; at 5-HT3 it was 1000 nM.
`C[C@@H]1CNCCN1c1ncc(F)c(O[C@H](C)c2cccc(F)c2)n1` [(R,R)-4d, 5-Fluoro-4-((R)-1-(3-fluorophenyl)ethoxy)-2-((R)-2-methylpiperazin-1-yl)pyrimidine]: the inhibition at 10 µM at 5-HT7 is 84.4%; at 5-HT1A, 78%; on 5-HT5A it was 28.1%; on 5-HT3, 89.4%; on 5-HT1D, -6.8%; at 5-HT1B, 27.7%. Moreover, the inhibition at 10 µM on 5-HT2B worked out at 100%. In addition, the inhibitory constant (Ki) was 444 nM on 5-HT7, 98 nM at 5-HT1A and 242 nM on 5-HT3.

In general, inhibition refers to the change of the read-out against control, counted positive when it falls. Usually Ki stands for the dissociation constant of the complex between target and ligand, obtained from inhibition or displacement.
